Data on 7 compounds can be found in patent US12377152B2, “Compounds for degrading alpha-synuclein aggregates and uses thereof” (APRINOIA THERAPEUTICS LIMITED, priority 2019, dated 2025).

Structures are written as SMILES.

One data set concerns the target α-synuclein aggregates (Homo sapiens (Human), UniProt P37840). As to the kind of experiment: ReNcell VM α-synuclein aggregation assay. The conditions noted are these: for DC50: ReNcell VM cells, read-out: Activity (DC50, concentration at which 50% of α-synuclein aggregates has been degraded). It is filed as cell-based. The procedure:
The ReNcell VM α-synuclein aggregation assay was conducted at Charles River Laboratories (CRL). ReNcell VM is an immortalized human neural progenitor cell line derived from the ventral mesencephalon region of the brain. ReNcell VM cells were selected as in vitro cellular model for the α-synuclein aggregation assay, based on their growth features, differentiation potential into terminally differentiated neurons and amenability to adenoviral transduction. Aggregated human wild type α-synuclein was overexpressed through adenoviral delivery. Aggregated α-synuclein was detected with the aggregate-selective anti-α-synuclein antibody MJFR14 using immunocytochemistry; total α-synuclein levels were detected with Syn205 (α/β-synuclein-specific antibody).
The ReNcell VM α-synuclein aggregation assay was applied for compound screening to identify compounds capable of degrading α-synuclein aggregates. […] Immunoreactivity toward aggregated (MJFR14) and total α-synuclein (Syn205) was quantified using high content-based segmentation of immunoactive areas in immunocytochemical images (performed with the IN Cell 2200 (GE Healthcare)), followed by quantification of immunofluorescent intensity (performed by CRL's developed algorithm using IN Cell Developer Toolbox software).
Percentage effect (PE): Inhibition in comparison to BLANK (0.1% DMSO).
PE=100−(signal of compound/average signal BLANK)×100
Compound-induced cytotoxicity (% remaining cells)
% remaining cells=(nuclei count of compound/average nuclei count of BLANK)×100

Data set [1] in a line: In vivo pharmacokinetic study. The conditions noted are these: mice; for AUC(0-t) / Cmax / Tmax / half-life: mouse. The method, then: To determine whether the compounds of the present disclosure are capable of crossing the blood brain barrier (BBB), example compound 132168 was administered to mice in a pharmacokinetic study (10 and 25 mg/kg, intravenous).
Animal Husbandry: Mice were housed at animal room environment with ventilation 15 times/hour, lighting 12 hours/day, temperature 20° C. to 24° C. and humidity 40% to 70%. The study rooms were disinfected and cleaned prior to the start of the study and the operation area was cleaned after each dosing or sampling during the study conduct. All animals had free access to food and water during the study. The animals had access to Certified Rodent Diet and water ad libitum. The nutritional composition and levels of contaminants of the diet and impurities and contaminants of the water were monitored by third organization. The health status of the animals was evaluated in accordance with accepted animal husbandry procedures and deemed suitable for experimental use.
Sample Collection & Processing: Approximately 110 μL of whole blood were collected from all animals via facial or cardiac puncture under anesthesia with Isoflurane into test tubes containing potassium ethylenediaminetetraacetate (K2EDTA) at 0.25, 0.5, 1, 2, 4, 8 and 24 hr post dose. Brian samples were collected at 0.25, 0.5, 1, 2, 4, 8 and 24 hours post dose. A perfusion with pre-cold saline will be conducted via cardiac puncture before brain collection. Blood samples were centrifuged at 2000 g at 4° C. for 5 minutes to obtain plasma samples by transferring the supernatants into new tubes. All plasma and brain samples were stored at approximately −70° C. until analysis.
Bioanalytical Method Development: The concentrations of compound in plasma and brain samples were determined using a liquid chromatography with tandem mass spectrometry (LC-MS/MS) based method.

Data set [2] deals with T1, α-synuclein (Homo sapiens (Human), UniProt P37840). As to the kind of experiment: In vivo assay for degrading α-synuclein aggregates (transgenic Line61 mice). The conditions noted are these: 25 mpk, once intravenous, hemibrain, WES System. The procedure:
Male transgenic Line61 mice at age of three-month-old were used for the study. Mice were treated once via intravenous injection with the compound 132168 (25 mpk). Plasma and brain samples were collected at 0.25, 0.5, 1, 2, 4, 8 and 24 h post treatment. Blood samples were collected via cardiac puncture into MiniCollect® 0.5 mL K2EDTA (Potassium ethylenediaminetetraacetic acid) tubes. The blood samples were centrifuged at 3000×g for 10 minutes at room temperature (22° C.). Plasma was transferred to a pre-labeled 1.5 ml LoBind Eppendorf tube (2 aliquot, each ˜[…]), frozen on dry ice and stored at −80° C. until analysis. For brain samples, a perfusion with 0.9% saline was performed before collection. Brain was weighed, hemisected on a cooled surface, weighed and snap frozen. The hemibrain was used for WES System analysis of human α-synuclein in soluble and insoluble fraction. Upon treatment of compound 132168, insoluble α-synuclein fraction decreases 30% compared to DMSO vehicle control, reflecting the reduction of insoluble α-synuclein aggregates.

In data set [3] the target is T1, α-synuclein. As to the kind of experiment: In vitro fluorometric α-synuclein binding assay. The conditions noted are these: 2 μM α-synuclein, 37° C., 1 hour, fluorescence. The procedure:
(§1) (A) Expression and purification of recombinant wild-type human α-synuclein: 0.5 mM IPTG was used to induce production of wild type human α-synuclein by bacteria transformed with a full-length α-synuclein expression plasmid. After shaking at 16° C. for 20 hours, cell pellet was resuspended in lysis buffer (10 mM Tris, 1 mM EGTA, 0.75 mM NaCl, 1 mM PMSF, pH 7.5) and lysed by sonication followed by centrifugation (6000 g, 30 min, 4° C.). The supernatant was then boiled at 95° C. for 15 min with manual agitation by every 5 minutes, followed by centrifugation (6000 g, 30 min, 4° C.). Supernatant was dialyzed with (10 mM Tris, 1 mM EGTA, 50 mM NaCl, pH 7.5) buffer and concentrated with concentrator. The collected sample was loaded onto a Superdex200 column, the flow-through fraction was then loaded onto a Q-HP column. Collected fractions with α-synuclein eluates were pooled, concentrated and stored at −80° C.
(§2) (B) Preparation of aggregated α-synuclein: 5 mg/mL of α-synuclein in PBS buffer (pH 7.4) was incubated in tube with at 37° C. with shaking (700 rpm) for 5-10 days.
(C) In vitro fluorometric α-synuclein binding assays: 2 μM α-synuclein was incubated with serially diluted compound (three-fold serial dilutions, from 10 to 0.001 μM) in a 96-well plate at 37° C. for 1 hour. Fluorescence intensity was read by microplate spectrometer. Compound Kd values were calculated using the following equation: Y=Bmax*X/(Kd+X), where X is the concentration of compound; Y is the fluorescence signal of (compound+α-synuclein)−(compound+DMSO); and Bmax is the maximum signal.

For data set [4], the target named is T1, α-synuclein. As to the kind of experiment: PBB5 competition assay. It is filed as binding. Conditions: 2 μM α-synuclein, 0.26 μM PBB5, 37° C., 1 hour. The method, then: as §1, §2
(D) PBB5 competition assay: 2 μM of α-synuclein was incubated with 0.26 μM 2-(4-(2-(methylamino)pyridine-5-yl)-1,3-butadiene-1-yl)benzothiazole-6-ol (PBB5) and serially diluted compound (three-fold serial dilution, from 10 to 0.001 μM) in a 96-well plate at 37° C. for 1 hour. Fluorescence intensity (excitation/emission=530/690 nm) of PBB5 was read by microplate spectrometer. Percentage of competition was calculated using the following equation: (Max−well of compound alone)/(Max−Min)*100%, where Max=(α-synuclein+PBB5) signals−(buffer+PBB5) signals; and Min=(buffer+PBB5) signals−(buffer+PBB5) signals. The IC50 value of each compound was calculated with GraphPad Prism software using the “4 Parameter Logistic Model or Sigmoidal Dose-Response Model”: Y=Bottom+(Top−Bottom)/(1+(IC50/X)^HillSlope)

In the case of `CN(C)c1ccc(-c2ccc(-c3nc4ccc(NCCCCCOc5ccc6c(c5)CN(C5CCC(=O)NC5=O)C6=O)cc4s3)c(C(F)(F)F)c2)cn1` (centres unmarked) [Compound 132168], at α-synuclein aggregates (6-day treatment, immunocytochemical images), the “inhibition of MJFR14 immunoreactivity” value is “clear inhibition”. In addition, at α-synuclein aggregates, the DC50 was 0.01 to 0.9 µM. Besides, in data set [1] (10 and 25 mg/kg intravenous), the “blood brain barrier (BBB) penetration” value was “able to penetrate BBB”. Further, in data set [1] (Brain, 10 mg/kg intravenous), the area under the curve AUC(0-t) came to 1330 ng·h/mL, the Cmax came to 319 ng/mL, the Tmax came out at 0.5 h and the half-life was 5.88 h. In data set [1] (Brain, 25 mg/kg intravenous), the exposure AUC(0-t) came out at 4070 ng·h/mL, the peak level (Cmax) was 581 ng/mL and the Tmax turned out to be 4 h. For the same compound, in data set [1] (Plasma, 10 mg/kg intravenous), the exposure AUC(0-t) was 17800 ng·h/mL and the half-life was 2.87 h. In data set [1] (Plasma, 25 mg/kg intravenous), this compound gave an exposure AUC(0-t) of 48700 ng·h/mL and a half-life of 2.12 h. The “decrease of insoluble α-synuclein fraction compared to DMSO vehicle control” value at α-synuclein [2] is on record as 30%.
For the compound `CN(C)c1ccc(-c2ccc(-c3nc4ccc(OCCOCCOc5ccc6c(c5)CN(C5CCC(=O)NC5=O)C6=O)cc4s3)cc2)cn1` (centres unmarked) [Compound 163123], binding at α-synuclein [3] was put at a Kd of 0.26 µM. Further, at α-synuclein aggregates, the DC50 was greater than 10 µM. Further, the IC50 on α-synuclein [4] was greater than 10 µM.
In turn, `COc1ccc2nc(-c3ccc(-c4ccnc(NCCCCCOc5ccc6c(c5)CN(C5CCC(=O)NC5=O)C6=O)c4)cc3)cn2c1` (centres unmarked) [Compound 165802] gave a dissociation constant (Kd) at α-synuclein [3] of 2.44 µM. Moreover, the DC50 on α-synuclein aggregates was greater than 10 µM. Also, the IC50 on α-synuclein [4] was greater than 10 µM.
Regarding `O=C1CCC(N2Cc3cc(OCCCC(=O)Nc4ccc(-c5ccc(-c6cc7ccncc7[nH]6)cc5)cn4)ccc3C2=O)C(=O)N1` (centres unmarked) [Compound 166099], the Kd at α-synuclein [3] came to 5.63 µM. In addition, the DC50 on α-synuclein aggregates was greater than 10 µM. Moreover, the IC50 at α-synuclein [4] came to 0.04 µM.
Regarding `CN(C)c1ccc(-c2ccc(-c3nc4c(OCCOCCOc5ccc6c(c5)CN(C5CCC(=O)NC5=O)C6=O)cccc4s3)cc2)cn1` (centres unmarked) [Compound 166330], the Kd at α-synuclein [3] was 0.59 µM. Also, the DC50 at α-synuclein aggregates was greater than 10 µM. In addition, the IC50 on α-synuclein [4] came to 2.6 µM.
For `CN(C)c1ccc(-c2ccc(-c3cn4cc(OCCOCCOc5ccc6c(c5)CN(C5CCC(=O)NC5=O)C6=O)ccc4n3)cc2)cn1` (centres unmarked) [Compound 177033], in that order: 0.65 µM, greater than 10 µM and 0.63 µM.
Take `CN(C)c1ccc(-c2ccc(-c3nc4ccc(OCCOCCOc5cccc6c5C(=O)N(C5CCC(=O)NC5=O)C6=O)cc4s3)cc2)cn1` (centres unmarked) [Compound 180944]: on α-synuclein [3], binding was put at a Kd of 0.43 µM. In addition, the IC50 at α-synuclein [4] was found to be 0.61 µM.
